Measured values taken from PubChem BioAssay (NCI).
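Cells were grown in 96-well plates and exposed to each compound for 48 hours at five concentrations; endpoints were interpolated linearly between bracketing concentrations, or set to the highest concentration if not reached. TGI: concentration producing complete growth inhibition.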

What was measured:
Assay in all cases: inhibition of tumour cell growth, NCI panel, 48 h
[1] = test system: NCI-H522 lung
[2] = test system: SR leukemia
[3] = test system: EKVX NSCLC
[4] = test system: HOP-62 NSCLC
[5] = test system: MOLT-4 leukemia
[6] = test system: UACC-257 melanoma
[7] = test system: IGROV1 ovarian
[8] = test system: K-562 leukemia
[9] = test system: TK-10 renal
[10] = test system: ACHN renal
[11] = test system: SK-MEL-2 melanoma
[12] = test system: HCT-15 colon
[13] = test system: HOP-92 NSCLC
[14] = test system: RXF 393 renal
[15] = test system: HCT-116 colon
[16] = test system: MDA-MB-435
[17] = test system: SNB-75 CNS
[18] = test system: MCF7 breast
[19] = test system: OVCAR-4 ovarian
[20] = test system: LOX IMVI melanoma
[21] = test system: U251 CNS
[22] = test system: HT29 colon
[23] = test system: SK-OV-3 ovarian
[24] = test system: M14 melanoma
[25] = test system: CCRF-CEM leukemia
[26] = test system: UACC-62 melanoma
[27] = test system: SK-MEL-5 melanoma
[28] = test system: A498 renal
[29] = test system: 786-0 renal
[30] = test system: SN12C renal
[31] = test system: KM12 colon
[32] = test system: NCI/ADR-RES ovarian
[33] = test system: SK-MEL-28 melanoma
[34] = test system: MDA-N
[35] = test system: HCC-2998 colon
[36] = test system: OVCAR-5 ovarian
[37] = test system: SF-268 CNS
[38] = test system: UO-31 renal
[39] = test system: HL-60(TB) leukemia
[40] = test system: T-47D breast
[41] = test system: OVCAR-8 ovarian
[42] = test system: CAKI-1 renal
[43] = test system: COLO 205 colon
[44] = test system: MDA-MB-231 breast
[45] = test system: HS 578T breast
[46] = test system: DU-145 prostate
[47] = test system: A549 NSCLC
[48] = test system: BT-549 breast
[49] = test system: RPMI-8226 leukemia
[50] = test system: SNB-19 CNS
[51] = test system: NCI-H23 lung
[52] = test system: SW-620 colon
[53] = test system: SF-295 CNS
[54] = test system: OVCAR-3 ovarian
[55] = test system: MALME-3M melanoma
[56] = test system: NCI-H460 lung
[57] = test system: SF-539 CNS
[58] = test system: NCI-H226 lung
[59] = test system: PC-3 prostate

CCOC(=O)O/N=C1/C(c2c(O)[nH]c3ccccc23)=Nc2ccccc21
TGI [1]: 30.2 µM
TGI [2]: > 100 µM
TGI [3]: 13.5 µM
TGI [4]: 33.9 µM
TGI [5]: > 100 µM
TGI [6]: 24.6 µM
TGI [7]: 30.9 µM
TGI [8]: > 100 µM
TGI [9]: 24 µM
TGI [10]: 33.1 µM
TGI [11]: 8.18 µM
TGI [12]: 20.4 µM
TGI [13]: > 100 µM
TGI [14]: 6.16 µM
TGI [15]: 13.6 µM
TGI [16]: 17.3 µM
TGI [17]: 11.4 µM
TGI [18]: 18.4 µM
TGI [19]: 45.2 µM
TGI [20]: 26.6 µM
TGI [21]: > 100 µM
TGI [22]: 46.7 µM
TGI [23]: 7.07 µM
TGI [24]: 24.2 µM
TGI [25]: 16.6 µM
TGI [26]: 23 µM
TGI [27]: 6.99 µM
TGI [28]: 16.8 µM
TGI [29]: 28 µM
TGI [30]: 23.2 µM
TGI [31]: 13.8 µM
TGI [32]: 78.6 µM
TGI [33]: 41.8 µM
TGI [34]: 19.3 µM
TGI [35]: 6.46 µM
TGI [36]: 56.2 µM
TGI [37]: 68.2 µM
TGI [38]: 40.6 µM
TGI [39]: 24.1 µM
TGI [40]: 25.6 µM
TGI [41]: 30.8 µM
TGI [42]: 14.5 µM
TGI [43]: 28.8 µM
TGI [44]: 63 µM
TGI [45]: 51.8 µM
TGI [46]: 13.3 µM
TGI [47]: 33.1 µM
TGI [48]: 31.7 µM
TGI [49]: > 100 µM
TGI [50]: 95.1 µM
TGI [51]: 25.5 µM
TGI [52]: > 100 µM
TGI [53]: 48.8 µM
TGI [54]: 8 µM
TGI [55]: 22.1 µM
TGI [56]: 15.8 µM

COc1cnnc2c(C)c(-c3ccccc3)nn12
TGI [57]: > 100 µM
TGI [1]: > 100 µM
TGI [3]: > 100 µM
TGI [4]: > 100 µM
TGI [58]: > 100 µM
TGI [5]: > 100 µM
TGI [6]: > 100 µM
TGI [7]: > 100 µM
TGI [8]: > 100 µM
TGI [9]: > 100 µM
TGI [10]: > 100 µM
TGI [11]: > 100 µM
TGI [12]: > 100 µM
TGI [13]: > 100 µM
TGI [14]: > 100 µM
TGI [15]: > 100 µM
TGI [16]: > 100 µM
TGI [17]: > 100 µM
TGI [59]: > 100 µM
TGI [18]: > 100 µM
TGI [19]: > 100 µM
TGI [20]: > 100 µM
TGI [21]: > 100 µM
TGI [22]: > 100 µM
TGI [23]: > 100 µM
TGI [24]: > 100 µM
TGI [25]: > 100 µM
TGI [26]: > 100 µM
TGI [27]: > 100 µM
TGI [28]: > 100 µM
TGI [29]: > 100 µM
TGI [30]: > 100 µM
TGI [31]: > 100 µM
TGI [32]: > 100 µM
TGI [33]: > 100 µM
TGI [34]: > 100 µM
TGI [35]: > 100 µM
TGI [36]: > 100 µM
TGI [37]: > 100 µM
TGI [38]: > 100 µM
TGI [39]: > 100 µM
TGI [40]: > 100 µM
TGI [41]: > 100 µM
TGI [42]: > 100 µM
TGI [43]: > 100 µM
TGI [44]: > 100 µM
TGI [45]: > 100 µM
TGI [46]: > 100 µM
TGI [47]: > 100 µM
TGI [48]: > 100 µM
TGI [49]: > 100 µM
TGI [50]: > 100 µM
TGI [51]: > 100 µM
TGI [52]: > 100 µM
TGI [53]: > 100 µM
TGI [54]: > 100 µM
TGI [55]: > 100 µM
TGI [56]: > 100 µM
